Reference: patent publication US8524222B2, “Bacillus isolates and methods of their use to protect against plant pathogens and virus transmission” (Montana State University, priority 2006, dated 2013)
Where “and” joins values, the source holds several entries; their conditions need not be identical. Identical values can stand only once.

Experiments:
[1] = test system: Botrytis cinerea; set-up: species or system Arabidopsis thaliana; conditions: in vivo
[2] = test system: NPR1; set-up: species or system sugar beet; conditions: in vivo
[3] = test system: C. beticola; assay: Field studies of Cercospora leaf spot control, Sidney, Mont.; set-up: species or system sugar beet; conditions: in vivo
Description: Field studies were conducted at the Eastern Agricultural Research Center in Sidney, Mont. from 1996 through 2003. Sugar beet variety ‘Beta 1996’ was planted the first year, VDH 66140 was planted the second year, HH88 the third year, KW2262 the fourth year and Beta 2185 the fifth, sixth, and seventh years. All cultivars were equally susceptible to C. beticola infection (BetaSeed, Shakopee, Minn., U.S.A.). […] In the last two years, freshly grown, washed cells were harvested from a 24 h tryptic soy broth culture grown at room temperature and prepared as described above, and applied to the plants. Fungicide treatments included triphenyltin hydroxide (TPTFI, SuperTin, Griffin L.L.C.), propiconazole (Tilt, Syngenta Crop Protection, Inc) and tetraconazole (Eminent, Sipeam Agro USA Inc.) that were applied at 390, 253 and 876 g ai ha^−1, respectively. All treatments were applied at 1761 ha^−1 using a CO2 backpack sprayer with a 4-nozzle boom starting at disease onset and continued at 14 day intervals for a total of four sprays. Plots were arranged “in a randomized complete block design. with six replicates per treatment. […] Area under the disease progress curve (AUDPC) was calculated for treated and untreated plants and percent disease control was determined as follows: 1-([…])*100. […]

[4] = test system: Peroxidase; assay: Apoplastic peroxidase activity (guaiacol reagent); type: in vivo, sugar beet; conditions: distal leaves, six days post treatment
Description: The concentration of protein as adjusted to give a change in absorbance units greater than 0.100, but less than 0.200, per minute. Specific activity was expressed as the increase inabsorbance (A470) over time (2 min) per mg of protein, as determined using Bradford reagent (BioRAD).

[5] = test system: Cercospora beticola; set-up: species or system sugar beet; conditions: in vivo
[6] = test system: Cercospora beticola; set-up: species or system sugar beet; conditions: in vivo; remark: listed apart in the source
[7] = test system: Fusarium culmorum isolate 2279; set-up: species or system spring wheat; conditions: in vivo
[8] = test system: hydrogen peroxide production; assay: Phenol red oxidation assay for biphasic hydrogen peroxide production in protoplasts and leaf disks; type: cell-based, sugar beet
Description: Sugar beet protoplasts were isolated from sugar beet leaves to provide a medium to measure hydrogen peroxide production. Sugar beet leaves were gently brushed on the adaxial and abaxial surfaces with a 50 ft bristle brush to create small abrasions. The leaves were then cut into 1 cm strips and vacuum infiltrated for 5 min with 0.7 M sucrose containing 3.8% CaCL2, CPW salts (Frearson et al, 1973), 1.2% cellulase (Sigma), and 0.4% macerozyme (ICN Biomedicals). The infiltrated leaves were incubated in the 0.7M sucrose-salt and enzyme solution for 24-48 hours in the dark. […]
To determine if the Bacillus strains elicited biphasic hydrogen peroxide production in sugar beet, phenol red oxidation assays were performed according to Pick and Keisari (1980). […] The amount of hydrogen peroxide produced from protoplasts in response to treatment with a Bacillus control agent was calculated as follows: amount of hydrogen peroxide produced in Bacillus protoplast reactions—(amount of hydrogen peroxide produced in protoplast only reactions+amount of hydrogen peroxide produced in Bacillus-only reaction). The amount of hydrogen peroxide produced by the leaf disks in response to Bacillus treatment was calculated as follows: amount of hydrogen peroxide produced by Bacillus-treated leaf disks-amount of hydrogen peroxide produced by leaf disks only reaction.

[9] = test system: B-1,3-glucanase; assay: Aniline blue plate assay for B-glucanase activity (screening); type: in vivo, sugar beet; conditions: cumulative results, 6 days after treatment
Description: (§1) The leaf penultimate to the oldest true leaf was treated with one of the Bacillus strains. […] The plants were kept at 28+/−2° C. for 6 days at which time the apoplastic proteins were collected as described by Klement (1965), with the following modification: a buffer containing 150 mM NaCl and 25 mM MES, pH 6.2, was substituted for distilled water. The proteins were quantified by Bradford reagent (Bio-Red) using bovine serum albumin as standards and frozen at −80° C. until analyzed.
Apoplastic protein (0.75, 0.50, and 0.25 ug for each sample in replicates of 3) was added to 3-mm diameter wells in a 0.5% agarose gel containing 0.005% aniline blue (MCB) and 0.5m.1/ml laminarin (from Laminaria digitata, Sigma) in a 14 cm diameter glass petri plate, along with laminarinase (Penicillium spp., Sigma) standards (2×10.5−2×10^−3 units of lamina˜inase). The plates were incubated at 30° C. for 18-24 hours. Following Incubation, the pink lytic zones on a blue background were measured while the plate was on a white light source. Specific activity (ug of glucose released/min/mg of apoplastic protein) was determined by comparison of the lytic zone diameter of the standards and the apoplastic samples.

[10] = test system: Chitinase; assay: Chitinase specific activity of apoplastic protein by plate assay, six days post treatment; type: in vivo, sugar beet; conditions: distal leaves
Description: (§2) One leaf per replicate was collected for each treatment and immediately placed in buffer (150 mm NaCl, 25 mm MES, pH 6-2). Apoplast extractions were collected as described by Klement having substituted buffer (150 mM NaCl, 25 mm MES. pH 6.2) for water.
Chitinase Specific Activity Determination by Plate Assay Sodium phosphate buffer (pH 5.0, 0.01 M) containing 1 agarose and 0.1% glycol chitin was added to a 9 cm diameter glass petri dish. Wells, 3 mm diameter, were excised from the agarose (three per sample for each of the three replicates per treatment). Dilutions of apoplastic protein (0.7, 0.35, and 0.23 ug) and chitinase standards (chitinase from Streptomycesgriseus Sigma) were loaded into the wells. The plate was incubated at 37° C. for 24 h. Following the incubation, 50 ml of 500 mMTris-HCl (pH 8.9) containing 0.01% fluorescent brightener was added to the plate and incubated for 10 min. The plate was then quickly rinsed 3× with water, flooded with water, and destained overnight in the dark. Non-fluorescent lytic regions on a fluorescent background were measured while the plate was on an uv light source. Specific activity (mg of N-acetyl-n-glucosamine released /hr /mg of apoplastic protein) was determined by comparison of the diameters of the lytic regions for the standards and the lytic regions for the apoplastic protein samples [55]. Results

[11] = test system: chitinase and B-1,3-glucanase; assay: Combined glycol chitin and aniline blue plate assays as predictor of SAR induction; type: in vivo, sugar beet; set-up: key: ✓: correctly identified all SAR-inducing isolates, indicated by check marks in Table 5; conditions: identified as SAR-inducer by increased activity of both defense proteins
From the text: There may be circumstances where the occurrence of chitinase and B-glucanase alone is not correlated with disease control (Punja, 2001), especially with fungal pathogens, since the enzymes function synergistically (Melchers and Stuiver, 2000). Therefore examination of the defense proteins together provides a more accurate prediction of disease control capability. Based on the assumption that increased activity for both defense proteins indicated SAR-inducing capacity, combined results from the glycol chitin and aniline blue plate assays correctly identified all SAR-inducing isolates, indicated by check marks in Table 5.

[12] = test system: salicylic acid; set-up: species or system sugar beet; conditions: in vivo
[13] = test system: B-1,3-glucanase; assay: B-1,3-glucanase specific activity of apoplastic protein (glucose release from laminarin); type: in vivo, sugar beet; conditions: distal leaves, six days post treatment
Description: as §2
The specific activity of sugar beet apoplastic B-1,3-glucanase was determined by measuring the release of glucose units from laminarin. Sodium acetate buffer (100 IJI, pH 5.0, 100 mM) containing 0.5% laminarin and 0.5 ug-2.0 ug apoplastic protein (plants per treatment replicated 3 times) was incubated at 3rc for 30-60 min. Following incubation, 900 ul of water and 1 ml of alkaline copper reagent was added to each 2 reaction. The tubes were then placed into a boiling water bath for 10 min. After cooling on ice, 1 ml arsenomolybdate color reagent was added to each reaction. Once the bubbling had subsided, 10 ml of water were added to each tube before reading the A660.

[14] = test system: Chitinase; assay: Glycol chitin plate assay for chitinase activity (screening); type: in vivo, sugar beet; conditions: cumulative results, 6 days after treatment
Description: as §1
Apoplastic protein (0.009, 0.006, and 0.005 ug for each sample in replicates of 3) was added to wells in a 1% agarose gel containing 0.01% glycol chitin in a 14 cm diameter glass petri plate, along with chitinase standards (Streptomyces griseus, Sigma). The plates were incubated at 37° C. for 24 hours. Following incubation. 50 ml of 500 mM Tris-HCl (pH 8.9) containing 0.01°/fluorescent brightener was added to the plate for 10 min. The plate was then rinsed three times with distilled water, flooded with water, and allowed to destain in the dark for 2-24 hours. The non-fluorescent lytic zones on a fluorescent background were measured while the plate was on a 302 nm UV light source. Specific activity (mg of N-acetyl-D-glucosamine released/hr/mg of apoplastic protein) was determined by comparison of the lyric zone diameter of the standards and the apoplastic samples (Velasquez. 2002).

C=CCOC1=NS(=O)(=O)c2ccccc21 [PBZ, Probenazole]
% disease reduction in comparison to distilled water [1]: 41.9 c %

CC/C=C\CC1C(=O)CCC1CC(=O)OC (centres unmarked) [methyl jasmonate]
% disease reduction in comparison to distilled water [1]: 49.9 d %

O=P(O)(O)CCCl [ethephon, 2-chloroethylphosphonic acid]
% disease reduction in comparison to distilled water [1]: 28.1 b %

O=C(O)c1ccccc1O [SA, salicylic acid]
activation of NPR1 [2]: activated NPR1 by 48 hours

[OH][Sn]([c]1ccccc1)([c]1ccccc1)[c]1ccccc1 [TPTH, triphenyltin hydroxide]
Disease Reduction by Year [3]: 81% and 90% and 94% and 72% and 88^d %

CSC(=O)c1cccc2nnsc12 [ASM, Acibenzolar-S-methyl]
activation of NPR1 [2]: activated NPR1 by 48 hours
Specific Activity Peroxidase [4]: 71.4 changes in absorbance (470 nm) per minute per milligram of apoplastic protein
disease reduction [5]: 50%
% Reduction at 21 DPC [6]: 63.6% and 64.6%
Disease Severity Index (%) [7]: 60.43% and 46.88% and 42.73 b % and 48.97% and 37.53 ab % and 47.31 b %
biphasic hydrogen peroxide production [8]: did not induce biphasic hydrogen peroxide production
Aniline blue plates [9]: 5.70a
Specific Activity Chitinase [10]: 1.26 milligrams of N-acetyl-n-gluco
Aniline blue and glycol chitin plates [11]: ✓
total SA levels over a 48 hour sampling scheme versus time zero [12]: lack of SA accumulation
Specific Activity Beta-glycanase [13]: 198.6 micrograms of glucose released per minute per milligram of apoplastic protein
Glycol chitin plates [14]: 3.09hed
